Here are results for 24 compounds from patent US20240398828A1, “HETERO-ATOM CONTAINING COMPOUNDS AND USES THEREOF” (Kumquat Biosciences Inc., priority 2021, published 2024).

One may read the IC50 as the midpoint of a concentration-inhibition curve.

In one experiment the target is T1, PTPN1 (i.e., PTP1B) (Homo sapiens, UniProt P18031).
T1 sequence (P18031 1-435): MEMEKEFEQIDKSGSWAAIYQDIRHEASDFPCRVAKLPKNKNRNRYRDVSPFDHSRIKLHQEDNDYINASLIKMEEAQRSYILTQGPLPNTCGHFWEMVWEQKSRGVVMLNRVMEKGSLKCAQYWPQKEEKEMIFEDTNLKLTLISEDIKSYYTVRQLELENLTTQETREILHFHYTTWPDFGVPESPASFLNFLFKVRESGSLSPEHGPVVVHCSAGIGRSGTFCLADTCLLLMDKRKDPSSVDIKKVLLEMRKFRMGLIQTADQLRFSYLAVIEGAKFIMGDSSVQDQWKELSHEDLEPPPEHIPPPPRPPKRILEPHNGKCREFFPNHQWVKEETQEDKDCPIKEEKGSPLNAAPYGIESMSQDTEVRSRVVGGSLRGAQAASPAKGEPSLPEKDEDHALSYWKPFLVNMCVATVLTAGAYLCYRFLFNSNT
The experiment can be described thus: Phosphatase activity assay (DiFMUP substrate), PTP1B. The experiment is classed as biochemical. The conditions noted are these: compounds binned ≤1 uM or >1 uM. The essentials: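 Continuous fluorogenic readout of DiFMUP dephosphorylation at room temperature, substrate set at Km for each phosphatase (about 45 μM in the PTPN2 assay). The buffer contains 1 mM DTT and 0.001% Tween-20, pH 7.5.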

Another experiment concerns the target T2, PTPN2 (i.e., TC-PTP) (Homo sapiens, UniProt P17706).
T2 sequence (P17706 1-415): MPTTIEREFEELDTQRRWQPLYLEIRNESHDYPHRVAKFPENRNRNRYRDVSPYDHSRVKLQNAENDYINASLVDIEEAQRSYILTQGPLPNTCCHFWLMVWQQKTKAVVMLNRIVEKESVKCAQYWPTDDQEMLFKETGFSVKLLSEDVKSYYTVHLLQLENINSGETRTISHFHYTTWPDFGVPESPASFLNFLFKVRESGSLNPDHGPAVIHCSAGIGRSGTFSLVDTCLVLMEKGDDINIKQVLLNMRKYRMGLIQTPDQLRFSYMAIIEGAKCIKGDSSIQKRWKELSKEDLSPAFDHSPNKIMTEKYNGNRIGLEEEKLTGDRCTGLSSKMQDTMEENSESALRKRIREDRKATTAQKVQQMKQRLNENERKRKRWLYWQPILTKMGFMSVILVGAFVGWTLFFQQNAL
Briefly: Phosphatase activity assay (DiFMUP substrate), PTPN2. The experiment is classed as biochemical. The conditions noted are these: compounds binned ≤1 uM or >1 uM. A digest of the protocol: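 Read-out is continuous fluorescence of DiFMU (360 nm excitation, 450 nm emission) over about 15-30 minutes, with DiFMUP substrate at the enzyme's independently determined Km (PTPN2 approx. 45 μM final). Buffer: 50 mM HEPES pH 7.5, 150 mM NaCl, 0.5 mM EDTA, 1 mM DTT, 0.001% Tween-20, room temperature; initial rates versus 10-point dilution fitted for IC50, at least duplicate.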

Molecules are shown by their SMILES. Some results are limits rather than exact numbers.

`O=C1CN(c2c(O)ccc(-c3cc(C4CC4C(F)F)n[nH]3)c2F)S(=O)(=O)N1` (stereo not drawn) [Compound 492, 5-(3-(3-(2-(difluoromethyl)cyclopropyl)-1H-pyrazol-5-yl)-2-fluoro-6-hydroxyphenyl)-1,2,5-thiadiazolidin-3-one 1,1-dioxide]: the IC50 was ≤ 1000 nM at PTPN1 (i.e., PTP1B) and ≤ 1000 nM on PTPN2 (i.e., TC-PTP).
Regarding `CCC1C=C(c2ccc(O)c(N3CC(=O)NS3(=O)=O)c2F)CN1` (stereo not drawn) [Compound 493, 5-(3-(5-ethyl-2,5-dihydro-1H-pyrrol-3-yl)-2-fluoro-6-hydroxyphenyl)-1,2,5-thiadiazolidin-3-one 1,1-dioxide], the IC50 at PTPN1 (i.e., PTP1B) was ≤ 1000 nM; on PTPN2 (i.e., TC-PTP), ≤ 1000 nM.
In the case of `CCn1nc(-c2ccc(O)c(N3CC(=O)NS3(=O)=O)c2F)cc1C1CC1(F)F` (stereo not drawn) [Compound 494, 5-(3-(5-(2,2-difluorocyclopropyl)-1-ethyl-1H-pyrazol-3-yl)-2-fluoro-6-hydroxyphenyl)-1,2,5-thiadiazolidin-3-one 1,1-dioxide], the 50% inhibitory concentration (IC50) at PTPN1 (i.e., PTP1B) was ≤ 1000 nM; at PTPN2 (i.e., TC-PTP) it was ≤ 1000 nM.
`CS(=O)(=O)n1nc(C2CC2)cc1-c1ccc(O)c(N2CC(=O)NS2(=O)=O)c1F` [Compound 495, 5-(3-(3-cyclopropyl-1-(methylsulfonyl)-1H-pyrazol-5-yl)-2-fluoro-6-hydroxyphenyl)-1,2,5-thiadiazolidin-3-one 1,1-dioxide]: the IC50 is ≤ 1000 nM on PTPN1 (i.e., PTP1B) and ≤ 1000 nM at PTPN2 (i.e., TC-PTP).
For the compound `O=C1CN(c2c(O)ccc(C3=CCN(CC4CC4)C3)c2F)S(=O)(=O)N1` [Compound 496, 5-(3-(1-(cyclopropylmethyl)-2,5-dihydro-1H-pyrrol-3-yl)-2-fluoro-6-hydroxyphenyl)-1,2,5-thiadiazolidin-3-one 1,1-dioxide], the IC50 on PTPN1 (i.e., PTP1B) is ≤ 1000 nM; on PTPN2 (i.e., TC-PTP) it was ≤ 1000 nM.
In the case of `CCC1C=C(c2ccc(O)c(N3CC(=O)NS3(=O)=O)c2F)CNC1` (stereo not drawn) [Compound 497, 5-(3-(5-ethyl-1,2,5,6-tetrahydropyridin-3-yl)-2-fluoro-6-hydroxyphenyl)-1,2,5-thiadiazolidin-3-one 1,1-dioxide], the IC50 at PTPN1 (i.e., PTP1B) is ≤ 1000 nM; on PTPN2 (i.e., TC-PTP), ≤ 1000 nM.
As to `CS(=O)(=O)n1nc(-c2ccc(O)c(N3CC(=O)NS3(=O)=O)c2F)cc1C1CC1` [Compound 498, 5-(3-(5-cyclopropyl-1-(methylsulfonyl)-1H-pyrazol-3-yl)-2-fluoro-6-hydroxyphenyl)-1,2,5-thiadiazolidin-3-one 1,1-dioxide], the IC50 at PTPN1 (i.e., PTP1B) is ≤ 1000 nM; on PTPN2 (i.e., TC-PTP), ≤ 1000 nM.
On to `N=C(N)N1CCC=C(c2ccc(O)c(N3CC(=O)NS3(=O)=O)c2F)C1` [Compound 499, 5-(3-(1,1-dioxido-4-oxo-1,2,5-thiadiazolidin-2-yl)-2-fluoro-4-hydroxyphenyl)-3,6-dihydropyridine-1(2H)-carboximidamide], for which the IC50 was ≤ 1000 nM on PTPN1 (i.e., PTP1B) and ≤ 1000 nM at PTPN2 (i.e., TC-PTP).
On to `O=C1CN(c2c(O)ccc(-c3cn(C4CC4(F)F)[nH]c3=O)c2F)S(=O)(=O)N1` (stereo not drawn) [Compound 500, 5-(3-(1-(2,2-difluorocyclopropyl)-3-oxo-2,3-dihydro-1H-pyrazol-4-yl)-2-fluoro-6-hydroxyphenyl)-1,2,5-thiadiazolidin-3-one 1,1-dioxide], for which the IC50 is ≤ 1000 nM on PTPN1 (i.e., PTP1B) and ≤ 1000 nM at PTPN2 (i.e., TC-PTP).
`O=C1CN(c2c(O)ccc(-c3cc(C4CC4CO)n[nH]3)c2F)S(=O)(=O)N1` (stereo not drawn) [Compound 501, 5-(2-fluoro-6-hydroxy-3-(3-(2-(hydroxymethyl)cyclopropyl)-1H-pyrazol-5-yl)phenyl)-1,2,5-thiadiazolidin-3-one 1,1-dioxide]: the IC50 is ≤ 1000 nM at PTPN1 (i.e., PTP1B) and ≤ 1000 nM at PTPN2 (i.e., TC-PTP).
Take `N=C(N)N1CC=C(c2ccc(O)c(N3CC(=O)NS3(=O)=O)c2F)C1` [Compound 502, 3-(3-(1,1-dioxido-4-oxo-1,2,5-thiadiazolidin-2-yl)-2-fluoro-4-hydroxyphenyl)-2,5-dihydro-1H-pyrrole-1-carboximidamide]: the IC50 at PTPN1 (i.e., PTP1B) was ≤ 1000 nM; at PTPN2 (i.e., TC-PTP), ≤ 1000 nM.
For the compound `Cn1cc(-c2ccc(O)c(N3CC(=O)NS3(=O)=O)c2F)nc1N` [Compound 503, 5-(3-(2-amino-1-methyl-1H-imidazol-4-yl)-2-fluoro-6-hydroxyphenyl)-1,2,5-thiadiazolidin-3-one 1,1-dioxide], the IC50 at PTPN1 (i.e., PTP1B) was ≤ 1000 nM; at PTPN2 (i.e., TC-PTP) it was ≤ 1000 nM.
Regarding `C[C@H]1C=C(c2ccc(O)c(N3CC(=O)NS3(=O)=O)c2F)CN1` [Compound 504, (S)-5-(2-fluoro-6-hydroxy-3-(5-methyl-2,5-dihydro-1H-pyrrol-3-yl)phenyl)-1,2,5-thiadiazolidin-3-one 1,1-dioxide], the IC50 on PTPN1 (i.e., PTP1B) is ≤ 1000 nM; on PTPN2 (i.e., TC-PTP) it was ≤ 1000 nM.
`O=C1CN(c2c(O)ccc(-c3cnn(C(=O)N4CC(F)(F)C4)c3)c2F)S(=O)(=O)N1` [Compound 505, 5-(3-(1-(3,3-difluoroazetidine-1-carbonyl)-1H-pyrazol-4-yl)-2-fluoro-6-hydroxyphenyl)-1,2,5-thiadiazolidin-3-one 1,1-dioxide]: the IC50 on PTPN1 (i.e., PTP1B) is ≤ 1000 nM; at PTPN2 (i.e., TC-PTP) it was ≤ 1000 nM.
For `CCn1cc(-c2ccc(O)c(N3CC(=O)NS3(=O)=O)c2F)c(F)n1` [Compound 506, 5-(3-(1-ethyl-3-fluoro-1H-pyrazol-4-yl)-2-fluoro-6-hydroxyphenyl)-1,2,5-thiadiazolidin-3-one 1,1-dioxide], the IC50 was ≤ 1000 nM at PTPN1 (i.e., PTP1B) and ≤ 1000 nM at PTPN2 (i.e., TC-PTP).
Take `O=C1CN(c2c(O)ccc(-c3c[nH]nc3F)c2F)S(=O)(=O)N1` [Compound 507, 5-(2-fluoro-3-(3-fluoro-1H-pyrazol-4-yl)-6-hydroxyphenyl)-1,2,5-thiadiazolidin-3-one 1,1-dioxide]: the IC50 is ≤ 1000 nM at PTPN1 (i.e., PTP1B) and ≤ 1000 nM on PTPN2 (i.e., TC-PTP).
As to `O=C1CN(c2c(O)ccc(-c3cc(C4CC4(F)F)n(CC(F)F)n3)c2F)S(=O)(=O)N1` (stereo not drawn) [Compound 508, 5-(3-(5-(2,2-difluorocyclopropyl)-1-(2,2-difluoroethyl)-1H-pyrazol-3-yl)-2-fluoro-6-hydroxyphenyl)-1,2,5-thiadiazolidin-3-one 1,1-dioxide], the IC50 is ≤ 1000 nM on PTPN1 (i.e., PTP1B) and ≤ 1000 nM on PTPN2 (i.e., TC-PTP).
Consider `O=C1CN(c2c(O)ccc(-c3cn(C(F)F)nc3F)c2F)S(=O)(=O)N1` [Compound 509, 5-(3-(1-(difluoromethyl)-3-fluoro-1H-pyrazol-4-yl)-2-fluoro-6-hydroxyphenyl)-1,2,5-thiadiazolidin-3-one 1,1-dioxide], for which the IC50 on PTPN1 (i.e., PTP1B) was ≤ 1000 nM; at PTPN2 (i.e., TC-PTP), ≤ 1000 nM.
In the case of `O=C1CN(c2c(O)ccc(-c3cnn(CCC(F)F)c3)c2F)S(=O)(=O)N1` [Compound 510, 5-(3-(1-(3,3-difluoropropyl)-1H-pyrazol-4-yl)-2-fluoro-6-hydroxyphenyl)-1,2,5-thiadiazolidin-3-one 1,1-dioxide], the IC50 on PTPN1 (i.e., PTP1B) is ≤ 1000 nM; at PTPN2 (i.e., TC-PTP) it was ≤ 1000 nM.
As for `O=C1CN(c2c(O)ccc(C3=CCCNC3)c2F)S(=O)(=O)N1` [Compound 511, 5-(2-fluoro-6-hydroxy-3-(1,2,5,6-tetrahydropyridin-3-yl)phenyl)-1,2,5-thiadiazolidin-3-one 1,1-dioxide], the 50% inhibitory concentration (IC50) was ≤ 1000 nM on PTPN1 (i.e., PTP1B) and ≤ 1000 nM on PTPN2 (i.e., TC-PTP).
On to `CC1NCC=C1c1ccc(O)c(N2CC(=O)NS2(=O)=O)c1F` (stereo not drawn) [Compound 512, 5-(2-fluoro-6-hydroxy-3-(2-methyl-2,5-dihydro-1H-pyrrol-3-yl)phenyl)-1,2,5-thiadiazolidin-3-one 1,1-dioxide], for which the IC50 at PTPN1 (i.e., PTP1B) was > 1000 nM; at PTPN2 (i.e., TC-PTP), > 1000 nM.
In the case of `O=C1CN(c2c(O)ccc(C3=CC(=O)OC3)c2F)S(=O)(=O)N1` [Compound 513, 5-(2-fluoro-6-hydroxy-3-(5-oxo-2,5-dihydrofuran-3-yl)phenyl)-1,2,5-thiadiazolidin-3-one 1,1-dioxide], the IC50 was ≤ 1000 nM at PTPN1 (i.e., PTP1B) and ≤ 1000 nM at PTPN2 (i.e., TC-PTP).
As to `O=C1CN(c2c(O)ccc(-c3cnn(C(=O)NC4CC4)c3)c2F)S(=O)(=O)N1` [Compound 514, N-cyclopropyl-4-(3-(1,1-dioxido-4-oxo-1,2,5-thiadiazolidin-2-yl)-2-fluoro-4-hydroxyphenyl)-1H-pyrazole-1-carboxamide], the IC50 at PTPN1 (i.e., PTP1B) is ≤ 1000 nM; on PTPN2 (i.e., TC-PTP), ≤ 1000 nM.
In the case of `CCCC1C=C(c2ccc(O)c(N3CC(=O)NS3(=O)=O)c2F)CN1` (stereo not drawn) [Compound 515, 5-(2-fluoro-6-hydroxy-3-(5-propyl-2,5-dihydro-1H-pyrrol-3-yl)phenyl)-1,2,5-thiadiazolidin-3-one 1,1-dioxide], the 50% inhibitory concentration (IC50) was ≤ 1000 nM on PTPN1 (i.e., PTP1B) and ≤ 1000 nM on PTPN2 (i.e., TC-PTP).
